Measurements reported in patent publication US10561638B2, “Methods for treating dependence” (Biotie Therapies, Inc., priority 2007, dated 2020).
“Also recorded” adds a separate entry of the source.

Columns and labels:
[1] = tested on: tissue norepinephrine and dopamine levels; test: Tissue catecholamines in SHRs after single dose (dose response, time course); format: in vivo, spontaneously hypertensive rats; details: 6.2 mg/kg oral or i.v., 0.5 to 4 hours
[2] = Phase I single- and multiple-dose studies in healthy men; format: in vivo, human
[3] = tested on: SHRs; test: 21 day daily treatment of SHRs, tail cuff and direct blood pressure; format: in vivo, spontaneously hypertensive rats
[4] = tested on: norepinephrine and dopamine levels; test: Cortex and mesenteric artery catecholamines in SHRs after 7 and 25 days; format: in vivo, spontaneous hypertensive rats
Experimental: Nepicastat at 1 and 10 mg/kg was prepared in terms of the free base. The weighings were dissolved in vehicle (dH2O) to yield oral doses that could be administered in a volume of 10.0 ml/kg.
Male spontaneous hypertensive rats (SHRs), 16-17 weeks old at the onset of the study, were used. Animals were allowed food and water ad libitum. Animals were randomly assigned to one of the following treatment groups: oral administration of nepicastat at 10 mg/kg, 1 mg/kg, or a vehicle group of deionized water at 10 ml/kg. Rats were dosed orally once a day for 7 or 25 days with vehicle, 1 mg/kg or 10 mg/kg nepicastat (n=8) except for day 25, where n=9. On day 7, four hours after compound administration, animals were anesthetized with halothane, decapitated and the cortex and mesenteric artery were harvested, weighed, and analyzed from 24 rats (n=8/treatment group). The remaining […] continued receiving oral administration with one of the three treatments for the following 18 days. At 4 hours after the last treatment the mesenteric artery and cortex from this group were harvested, weighed, and analyzed for catecholamine levels.
Statistically, the three treatments were compared at each time period (7 or 25 days) using a non-parametric one-way analysis of variance (ANOVA). Pairwise comparisons of each treatment with control were performed using Fisher's LSD strategy on the means, adjusted for differences in sample size, to control the experiment-wise error rate. Each variable was analyzed separately. For FIGS. 6-11, *, p<0.05 and **, P<0.01.

[5] = tested on: SHRs; test: 30-day radio-telemetry study in SHRs; details: for blood pressure: hydrochloride
[6] = tested on: tissue noradrenaline and dopamine content; test: Tissue catecholamines in beagle dogs dosed b.i.d. for 5 days; format: in vivo; details: for maximal increase in DA/NE ratio: 5 mg/kg b.i.d.; for decrease in noradrenaline / increase in dopamine: 5 mg/kg b.i.d. po
Experimental: Male beagle dogs (10-16 kg, Marshall Farms USA Inc, North Rose, N.Y., USA) were also used in in vivo studies. On the day of the study, dogs were weighed and randomly assigned to be orally dosed with either empty capsules (control) or the appropriate dose of nepicastat (0.05, 0.5, 1.5 or 5 mg·kg^−1; po, b.i.d.) for 5 days. At six hours following the first dose on day-5, the dogs were euthanized with pentobarbital and the tissues (cerebral cortex, renal artery, left ventricle) were rapidly harvested. The tissues were subsequently processed and analyzed for noradrenaline and dopamine.
Nepicastat was used in in vivo biochemical studies to study the effects in spontaneously hypertensive rats (SHRs) and normal beagle dogs. On the day of the study, the animals were weighed and randomly assigned to receive either placebo (vehicle) or the appropriate dose of nepicastat. Each rat was dosed orally three times, 12 h apart, beginning in the morning. At 6 h after the third dose, the rats were anesthetized with halothane, decapitated, and the tissues (cerebral cortex, mesenteric artery and left ventricle) were rapidly harvested, weighed, placed in iced 0.4 M perchloric acid, frozen in liquid nitrogen and stored at −70° C. until analysis. Tissue NE and DA concentrations were assayed by HPLC using electrochemical detection. Male beagle dogs (10-16 kg, Marshall Farms USA Inc, North Rose, N.Y.) were used in the study. On the day of the study, dogs were randomly assigned to receive either placebo (empty capsule) or the appropriate dose of nepicastat. Each dog was dosed twice a day for 4.5 days. 6 h after the first dose on day 5, the dogs were euthanized with pentobarbital and the tissues (cerebral cortex. renal artery, left ventricle) harvested, weighed, placed in iced 0.4 M perchloric acid, frozen in liquid nitrogen and stored at −70° C. until analysis. Tissue NE and DA concentrations were assayed by HPLC using electrochemical detection.

[7] = cerebral cortex, 7 days, 10 mg/kg
[8] = mesenteric artery, 7 and 25 days, 10 mg/kg

Cl.NCc1c[nH]c(=S)n1[C@H]1CCc2c(F)cc(F)cc2C1 [nepicastat, (S)-5-Aminomethyl-1-(5,7-difluoro-1,2,3,4-tetrahydronaphth-2-yl)-2,3-dihydro-2-thioxo-1H-imidazole hydrochloride]
mesenteric artery catecholamines [1]: significantly decreased norepinephrine and increased dopamine and the dopamine/norepinephrine ratio
subjects who developed a rash ([2]; 200 mg for 8 days or longer): Five of the 6 subjects
tolerability, multiple-dose Phase I study ([2]; 5 and 40 mg, healthy men): generally well tolerated
effect on mood, sleep, cognition ([2]; 5 or 40 mg): no significant impairment of mood, sleep, or cognition
tolerability, single-dose Phase I studies ([2]; 5 to 800 mg, healthy men): generally well tolerated
cardiac adverse event in one subject ([2]; after 6 days of dosing with 200 mg): atrial arrhythmias and intermittent right bundle branch block
blood pressure measured directly via arterial cannulae, restrained ([3]; 10 mg/kg p.o.): significant antihypertensive effect
heart rate and systolic blood pressure by tail cuff ([3]; 1 and 10 mg/kg p.o., 21 days): did not alter heart rate, or systolic blood pressure
norepinephrine levels and dopamine/norepinephrine ratio vs vehicle ([4]; cerebral cortex, 7 days, 1 mg/kg): no significant (p>0.05) differences
dopamine/norepinephrine ratio vs vehicle [4, 7]: significantly (p<0.05) higher
norepinephrine levels vs vehicle [4, 7]: significantly (p<0.1) lower
dopamine levels vs vehicle ([4]; cerebral cortex, 7 days, 1 or 10 mg/kg): no significant (p>0.05) differences
dopamine levels vs vehicle ([4]; cortex, 25 days, 1 mg/kg): significantly (p<0.05) higher
dopamine/norepinephrine ratio vs vehicle ([4]; cortex, 25 days, 1 mg/kg): significantly (p<0.01) greater
dopamine/norepinephrine ratio vs vehicle ([4]; cortex, 25 days, 10 mg/kg): significantly greater (p<0.05)
norepinephrine levels vs control ([4]; cortex, 25 days, either dose): not significantly (p.>0.05) different
all parameters vs control ([4]; mesenteric artery, 1 mg/kg): None of the parameters measured were significantly (p<0.05) different
dopamine levels and dopamine/norepinephrine ratios vs vehicle [4, 8]: significantly higher dopamine levels and dopamine/norepinephrine ratios
norepinephrine levels vs vehicle [4, 8]: no differences in norepinephrine levels
peak decrease in mean blood pressure ([5]; 30 mg/kg/d, day 3): −20 mmHg
peak antihypertensive response on day 1 ([5]; 100 mg/kg, 21 hr after dosing): −29 mmHg
blood pressure ([5]; 3 and 10 mg/kg/d for 30 days): no significant effects; also recorded: did not significantly affect blood pressure
persistence of blood pressure effect after a single dose ([5]; 30 and 100 mg/kg/d): 24 h
blood pressure ([5]; 30 and 100 mg/kg/d for 30 days): significantly lowered blood pressure; also recorded: significantly reduced blood pressure
antihypertensive effect of mono-administration ([5]; enalapril 1 mg/kg or nepicastat 30 mg/kg (Series III)): only a small antihypertensive effect
relation of deaths to treatment ([5]; four deaths in four series): appeared unrelated to the treatment of nepicastat
cardiac hypertrophy / left ventricular mass ([5]; nepicastat 3-100 mg/kg): did not affect the cardiac hypertrophy
maximal increase in DA/NE ratio ([6]; cerebral cortex): 80 fold
decrease in noradrenaline ([6]; cerebral cortex): 96%
increase in dopamine ([6]; cerebral cortex): 166%
maximal increase in DA/NE ratio ([6]; left ventricle): 151 fold
decrease in noradrenaline ([6]; left ventricle): 91%
increase in dopamine ([6]; left ventricle): 700%
maximal increase in DA/NE ratio ([6]; renal artery): 95 fold
decrease in noradrenaline ([6]; renal artery): 88%
increase in dopamine ([6]; renal artery): 627%
doses at which catecholamine changes attained significance (p<0.05) ([6]; renal artery, left ventricle, cerebral cortex): ≥ 0.1 mg/kg/day
